Reference: patent publication US4457865A, “Sialic acid specific slug lectin” (Research Corporation, priority 1982, dated 1984)
Like-named read-outs stand apart in the source and are kept apart here.

B1: fetuin: sialoprotein, highly purified bovine fetuin (protein, UniProt P12763 19-359, looked up)
Alpha-2-HS-glycoprotein: IPLDPVAGYKEPACDDPDTEQAALAAVDYINKHLPRGYKHTLNQIDSVKVWPRRPTGEVYDIEIDTLETTCHVLDPTPLANCSVRQQTQHAVEGDCDIHVLKQDGQFSVLFTKCDSSPDSAEDVRKLCPDCPLLAPLNDSRVVHAVEVALATFNAESNGSYLQLVEISRAQFVPLPVSVSVEFAVAATDCIAKEVVDPTKCNLLAEKQYGFCKGSVIQKALGGEDVRVTCTLFQTQPVIPQPQPDGAEAEAPSAVPDAAGPTPSAAGPPVASVVVGPSVVAVPLPLHRAHYDLRHTFSGVASVESSSGEAFHVGKTPIVGQPSIPGGPVRLCPGRIRYFKI

Legend:
[1] = tested on: AS-40-80 fraction (partially purified LFA); experiment: Inhibition of hemagglutination by partially purified LFA (AS-40-80 fraction); assay type: cell-based, Limax flavus; conditions: for Inhibition (%) AS-40-80 Fraction: 20 μg protein of AS-40-80 per assay
Method: (§1) Hemagglutination Assay: Aliquots of lectin were adjusted to 0.5 ml by addition of tris-saline buffer which contained 0.4 mg/ml gelatin. To this was added 0.5 ml of a solution containing human erythrocytes that had been washed several times with 0.9% NaCl and whose absorbance at 620 nm was ~2. After standing at room temperature for 30 min. the cells were gently pelleted by centrifugation in a Dynac centrifuge. The cells were resuspended by shaking and allowed to stand for 5 min. in order to permit aggregating cells to settle. The absorbance at 620 nm of the upper one-half ml of the erythrocyte suspension was measured and the data were plotted as A620 versus μg or μl of lectin. One unit of activity is defined as the amount of LFA which gave a 50% agglutination. Percent agglutination was calculated as follows: [formula]
(§2) A 0.5 ml aliquot of erythrocytes was added to the lectin plus inhibitor solution and the percent agglutination determined as described above. The percent inhibition of agglutination represents the difference between the percent agglutination with lectin alone and that obtained with lectin plus inhibitor.

[2] = tested on: purified LFA (sialic acid specific slug lectin); experiment: Inhibition of hemagglutination by purified LFA; assay type: cell-based, Limax flavus; conditions: for Inhibition (%) Purified LFA: 0.34 μg purified LFA per assay; for IC50: read-out: Concentration giving 50% inhibition of hemagglutination, affinity purified LFA; for Ability to inhibit hemagglutination by purified slug lectin (in words): some 17 carbohydrates tested, concentrations as high as 10-25 mM
Method: as §1, §2

slug lectin = experiment: Double diffusion of slug lectin in agar gel against sialoproteins; assay type: binding, Limax flavus

Molecule | Inhibition (%) AS-40-80 Fraction ([1]; carbohydrate 25.0 mM) [%] | Inhibition (%) Purified LFA ([2]; carbohydrate 25.0 mM) [%] | Inhibition of hemagglutination by the 40-80% ammonium sulfate fraction (in words) [1] | other results
CO[C@H]1O[C@H](CO)[C@@H](O)[C@H](O)[C@@H]1O [α-Methyl-D-Mannose] | 0 | 0 |  | 
CC(=O)N[C@H]1C(O)O[C@H](CO)[C@H](O)[C@@H]1O (stereo partly drawn) [N--Acetyl-D-Galactosamine] |  |  | inhibition of hemagglutination | Inhibition (%) AS-40-80 Fraction ([1]; carbohydrate 10.0 mM): 75%; Inhibition (%) Purified LFA ([2]; carbohydrate 10.0 mM): 0%
O=C(O)[C@H]1OC(O)[C@H](O)[C@@H](O)[C@@H]1O (single isomer, unassigned) [D (-) Glucuronic Acid] | 0 | 0 |  | 
CO[C@H]1O[C@H](CO)[C@@H](O)[C@H](O)[C@H]1O [α-Methyl-D-Glucoside] | 0 | 0 |  | 
OC[C@H]1O[C@@](CO)(O[C@H]2O[C@H](CO)[C@@H](O)[C@H](O)[C@H]2O)[C@@H](O)[C@@H]1O [Sucrose] | 0 | 0 |  | 
O=C(CO)N[C@H]1[C@H]([C@H](O)[C@H](O)CO)OC(O)(C(=O)O)C[C@@H]1O (stereo partly drawn) [N--Glycolyneuraminic Acid, N-glycolylneuraminic acid] |  |  | inhibition of hemagglutination | Inhibition (%) AS-40-80 Fraction ([1]; carbohydrate 1.0 mM): 88%; Inhibition (%) AS-40-80 Fraction ([1]; carbohydrate .25 mM): 3%; Inhibition (%) AS-40-80 Fraction ([1]; carbohydrate .50 mM): 20%; Inhibition (%) AS-40-80 Fraction ([1]; carbohydrate .75 mM): 56%; Inhibition (%) Purified LFA ([2]; carbohydrate 1.0 mM): 85%; Inhibition (%) Purified LFA ([2]; carbohydrate .25 mM): 0%; Inhibition (%) Purified LFA ([2]; carbohydrate .50 mM): 2%; Inhibition (%) Purified LFA ([2]; carbohydrate .75 mM): 14%; IC50 [2]: 900 µM; IC50 ([2]; listed as GlyNeu): 810 µM; Ability to inhibit hemagglutination by purified slug lectin (in words) [2]: effective
OC[C@H]1O[C@@H](O[C@H]2[C@H](O)[C@@H](O)C(O)O[C@@H]2CO)[C@H](O)[C@@H](O)[C@H]1O (stereo partly drawn) [Lactose] | 0 | 0 |  | 
OC[C@H]1OC(O)[C@H](O)[C@@H](O)[C@@H]1O (single isomer, unassigned) [D (-) Glucose] | 0 | 0 |  | 
C[C@@H]1O[C@@H](O)[C@@H](O)[C@H](O)[C@@H]1O [α-L(-) Fucose] | 0 | 0 |  | 
OC[C@H]1OC(O)[C@H](O)[C@@H](O)[C@H]1O (single isomer, unassigned) [D (+) Galactose] | 0 | 0 |  | 
CC(=O)N[C@H]1C(O)O[C@H](CO)[C@@H](O)[C@@H]1O (stereo partly drawn) [N--Acetyl-D-Glucosamine] |  |  | inhibition of hemagglutination | Inhibition (%) AS-40-80 Fraction ([1]; carbohydrate 10.0 mM): 53%; Inhibition (%) Purified LFA ([2]; carbohydrate 10.0 mM): 0%
OC[C@H]1OC(O)[C@@H](O)[C@@H](O)[C@@H]1O (single isomer, unassigned) [D (+) Mannose] | 0 | 0 |  | 
OC1OC[C@@H](O)[C@H](O)[C@H]1O (single isomer, unassigned) [D (+) Xylose] | 0 | 0 |  | 
CC(=O)N[C@H]1[C@H]([C@H](O)[C@H](O)CO)OC(O)(C(=O)O)C[C@@H]1O (stereo partly drawn) [N--Acetylneuraminic Acid, N-acetylneuraminic acid] |  |  | inhibition of hemagglutination | Inhibition (%) AS-40-80 Fraction ([1]; carbohydrate .05 mM): 6%; Inhibition (%) AS-40-80 Fraction ([1]; carbohydrate .10 mM): 17%; Inhibition (%) AS-40-80 Fraction ([1]; carbohydrate .15 mM): 27%; Inhibition (%) AS-40-80 Fraction ([1]; carbohydrate .20 mM): 94%; Inhibition (%) Purified LFA ([2]; carbohydrate .05 mM): 1%; Inhibition (%) Purified LFA ([2]; carbohydrate .10 mM): 28%; Inhibition (%) Purified LFA ([2]; carbohydrate .15 mM): 54%; Inhibition (%) Purified LFA ([2]; carbohydrate .20 mM): 100%; IC50 [2]: 130 µM; Ability to inhibit hemagglutination by purified slug lectin (in words) [2]: effective
O[C@@H]1[C@@H](O)[C@@H](O)CO[C@H]1O [α (+) Arabinose] | 0 | 0 |  | 
N[C@H]1C(O)O[C@H](CO)[C@@H](O)[C@@H]1O (stereo partly drawn) [Glucosamine] | 19 | 0 | inhibition of hemagglutination | 
N[C@H]1C(O)O[C@H](CO)[C@H](O)[C@@H]1O (stereo partly drawn) [Galactosamine] | 45 | 0 | inhibition of hemagglutination | 
B1 |  |  |  | Inhibitory activity on slug lectin hemagglutination after asialylation ([2]; after incubation at 80° for one hour in 0.1N H2SO4): complete loss of inhibitory activity; Precipitin lines in double diffusion against slug lectin after asialylation (slug lectin; asialylated sialoprotein): lost; Precipitin lines in double diffusion against slug lectin (slug lectin; native sialoprotein): yielded precipitin lines
